{
  "source": "patent US8859625B2",
  "about": "“Methods to prepare penta-1,4-dien-3-ones and substituted cyclohexanones and derivatives with antitumoral and antiparasitic properties, the compounds and their uses” (Universidade Bandeirante de Sao Paulo-Academia, Paulista …, priority 2006, dated 2014)",
  "key": {"[1]": {"experiment": "Acute and subchronic toxicology in Balb-c mice by the endovenous route", "type": "in vivo", "description": "Acute and Subchronic Toxicology of DM-1 in Balb-c Mice by the Endovenous Route.\nBalb-c mice were weighted and housed in the biotery, subdivided into groups of 05 animals per cage and, after two weeks, received the DM-1 compound in different concentrations by the endovenous route. The compound was administered in a 0.2 mL volume using microseringe, for all concentrations, through the retro-orbital venous plexus."}, "B16F10 melanoma cells": {"system": "B16F10 melanoma cells", "experiment": "Cytotoxic and antiproliferative effects by the MTT colorimetric method on B16F10 melanoma cells", "type": "cell-based, murine", "settings": "for IC50: Mus musculus", "description": "Analysis of Cytotoxic and Antiproliferative Effects of HB-1 Compound and Miglyol 810® as Control by the MTT Colorimetric Method on B16F10 Melanoma Cells.\nThe colorimetric methodology for the respiratory route of mitochondria MTT (3-(4,5-dimethylthiazol-2-yl)2,5-diphenyl tetrazolium bromide) was used, as described by MOSMANN (1983). This method is based on the reduction of MTT to formazan by living cells. After growth and in vitro confluence of normal and tumoral cells, different concentrations of the HB-1 compound diluted in Miglyol 810® and the diluent-control (Miglyol 810®) have been added on the adhering cells, incubated for 24 hour. After the referred period, 10 μl of MTT (5 mg/mL) were added and incubated for 3 hours in stove with 5% CO2 at 37° C. After this period, the content of the culture plates were centrifuged for 2 minutes at 1800 rpm, at 4° C., the supernatant was removed and 100 μL of dimethyl sulfoxide (DMSO) were added to dissolve formazan crystals previously constituted and precipitated. The absorbances were obtained by an ELISA reader at 540 nm (TiterTek Multiskan) wavelength, with the results obtained shown in FIG. 12.\nIC50 Evaluation for B16F10 Melanoma Cells, Obtained from the Linear Equation."}, "T lymphocytes": {"system": "T lymphocytes", "experiment": "Cytotoxic and proliferative activity on T lymphocytes (MTT, compared to PHA)", "type": "cell-based, C57BL/6J mice", "description": "Preparation of T Lymphocytes\nGroups composed by 5 C57BL/6J mice of 2 months of age were sacrificed by cervical displacement and its lymph nodes chain from axillary, popliteal, and mesenteric regions were removed under sterile conditions. Lymph nodes were maintained in RPMI-1640 culture medium supplemented with 10% inactivated bovine fetal serum at 56° C. in the presence of antibiotics, and debridement was performed with the assistance of a bistury. The resulting cell suspension was filtered through 30 μm dialysis membrane and centrifuged for 10 minutes at 1800 rpm at 4° C. Cell pellet was resuspended in 5 mL RPMI complete medium and, after that, incubated in Petri dishes containing 10 mL bovine fetal serum for 1 hour in stove, at 37° C. and 5% CO2. […] Cell concentration was adjusted in Mallassez chamber to a 5×10^5 cells/mL concentration and cell viability was determined by the exclusion method with Trypan blue.\nCytotoxic and proliferative activities were determined in a 96 well plate and compared to mitogenic activity of phytohemagglutinin (PHA) and evaluated by the MTT calorimetric method. The obtained values were expressed as percentage.\nThe data of each experiment were statistically analysed by the ANOVA variance test with de p<0.05 significance."}, "[2]": {"settings": "cited from earlier work"}, "B16F10 melanoma": {"system": "B16F10 melanoma", "experiment": "B16F10 melanoma tumors implanted in C57BL/6J mice, intraperitoneal treatment; tumor area and volume", "type": "in vivo", "settings": "diluted in Miglyol 810, intraperitoneal 100 μl daily, 14 days", "description": "After the Day 4 of tumor cells implant (2×10^5 tumoral cells/mL), the animals were splitted in two groups: the test group, treated with HB-1 compound diluted in Miglyol 810® and the control group, which received only the diluent (Miglyol 810®) in the same volume as the test group. The animals were daily treated by intraperitoneal route. Concomitantly, measurements of animal weight and tumor size (two measures—length×width) were performed and tumor aspect registered by photographies.\nAfter the Day 14, the animals were sacrificed by cervical displacement, tumors were removed, and necropsy performed to remove all internal organs and macroscopic lesions for hystopathologic analysis.\nTumoral parameters were obtained by calculation of tumor average area (A) and volume (V), through the following formulas A=πR^2 and V=4/3πR^3, where (R=average tumor radius). […]\nAfter tumoral cell implant, the animals were treated with the HB-2 compound diluted in Miglyol 810® and with (HB2+HB-1) conjugate whereas the control group received the same volume of diluent and by the same administration route (intraperitoneal—100 μl). Daily, the animals received the compounds (100 μl) and the control group received Miglyol 810®, the animals were weighted, and the tumors were measured (length×width) and photographed. […]"}, "[3]": {"system": "human fibroblasts of normal skin", "experiment": "MTT cytotoxic and antiproliferative effects on human fibroblasts of normal skin", "type": "cell-based", "settings": "diluted in Miglyol 810, 24 hours", "description": "Analysis of Cytotoxic Effects by the MTT Method and Antiproliferative Effects for HB-2 Compound Diluted in Miglyol 810® and Miglyol 810® Control on Human Fibroblasts of Normal Skin.\nSkin fragments were asseptically collected during surgical procedures for tissue remotion in aesthetic surgery and immediately transferred to 50 mL sterile vials containing HAM F-12 (Gibco) culture medium supplemented with 20% of bovine fetal serum. Fragments were chopped, cleaned, and the smaller fragments were cultivated in Petri dishes in a Ham-F12 culture medium supplemented with 10% bovine fetal serum, and kept in humidified stoven at 37° C. and 5% C02.\nWhen attained subconfluence, the cells were trypsinized for 5 minutes, inactivated with 10% bovine fetal serum, centrifuged for 10 minutes at 2000 rpm at 4° C., transferred to 96 well flat bottom plates, and cultivated for 24 hours in a CO2 5% stoven. Fibroblasts were treated for 24 hours with different concentrations of HB-2 compound diluted in Miglyol 810® and the control group received the same volumes of Miglyol alone; cytotoxic and antiproliferative effects were evaluated by the MTT colorimetric method."}},
  "note": "Like-named read-outs stand apart in the source and are kept apart here.",
  "data": [
    {"smiles": "COc1cc(/C=C/C(=O)/C=C/c2ccc(O)c(OC)c2)ccc1[O-].[Na+]", "note": "[DM-1, sodium 4-[5-(4-hydroxy-3-methoxy-phenyl)-3-oxo-penta-1,4-dienyl]-2-methoxy-phenolate]", "values": [
      {"measurement": "LD50 compared to doxorubicin, fold smaller", "setting": "[1]; Balb-c, mouse, in vivo, 24 h", "result": 35, "unit": "fold"},
      {"measurement": "50% lethal dose (DL50)", "setting": "[1]; endovenous route", "result": 14, "unit": "mg/kg"},
      {"measurement": "maximum tolerable dose", "setting": "[1]; endovenous route", "result": 14, "unit": "mg/kg"},
      {"measurement": "behavioral alteration after the administration", "setting": "[1]; endovenous, 0.2 mL via retro-orbital venous plexus", "result": "no behavioral alteration was observed"},
      {"measurement": "macroscopic and hystopathologic alterations of the internal organs", "setting": "[1]; necropsy at Day 30", "result": "no significant macroscopic and hystopathologic alterations"},
      {"measurement": "acute respiratory and cardiac toxicity", "setting": "[1]; preclinic tests", "result": "has not present any suggestive effect of acute respiratory and cardiac toxicity"},
      {"measurement": "increase in cytotoxic effects (in vitro efficacy)", "setting": "B16F10 melanoma cells; monosodium composition relative to HB-1", "result": 7.0, "unit": "fold"}
    ]},
    {"smiles": "COc1cc(/C=C/C(=O)/C=C/c2ccc([O-])c(OC)c2)ccc1[O-].[Na+].[Na+]", "note": "[DM-2, disodium 3-oxo-penta-1,4-dienyl-bis(2-methoxy-phenolate)]", "values": [
      {"measurement": "toxic activity on normal cells", "setting": "T lymphocytes; T lymphocytes", "result": "no toxic activity on normal cells"},
      {"measurement": "proliferative activity of T lymphocytes", "setting": "T lymphocytes; different concentrations, compared to PHA 2.5 and 5.0 μg", "result": "induced no proliferative activity"},
      {"measurement": "LETAL DOSE 50%", "setting": "[1]; comparison table, own compound", "result": 700, "unit": "mg/kg"},
      {"measurement": "in vitro efficacy in relation to the monosodium DM-1 compound, fold smaller", "setting": "B16F10 melanoma cells", "result": "around 6.0 fold"},
      {"measurement": "IC50", "setting": "B16F10 melanoma cells; B16-F10, read-out: DOSE, footnote: obtained by preclinic experimental models", "result": 1.9, "unit": "µg/mL"},
      {"measurement": "IC50", "setting": "B16F10 melanoma cells; B16-F10, sodium salts, B16F10 murine melanoma, MTT, read-out: IC50", "result": 7.95, "unit": "µg/mL"}
    ]},
    {"smiles": "COc1cccc2c1C(=O)c1c(O)c3c(c(O)c1C2=O)C[C@@](O)(C(=O)CO)C[C@@H]3O[C@H]1C[C@H](N)[C@H](O)[C@H](C)O1", "note": "[Doxorubicin]", "values": [
      {"measurement": "50% LETHAL DOSE", "setting": "[2]; background table", "result": 20, "unit": "mg/kg"},
      {"measurement": "LETAL DOSE 50%", "setting": "[2]; comparison table, drugs of the therapeutics", "result": 20, "unit": "mg/kg"}
    ]},
    {"smiles": "COc1cc(C=CC(=O)C=Cc2ccc(OC(C)=O)c(OC)c2)ccc1OC(C)=O", "note": "[HB-2, 4-[5-(4-acetoxy-3-methoxy-phenyl)-3-oxo-penta-1,4-dienyl]-2-methoxy-phenylacetate]", "values": [
      {"measurement": "reduction of tumoral burden (tumor area and volume)", "setting": "B16F10 melanoma", "result": 60, "unit": "%"},
      {"measurement": "cytotoxic effect in normal human fibroblasts", "setting": "[3]", "result": "no cytotoxic effect was observed"}
    ]}
  ]
}
